From patent publication EP1043331A1, “BONE-RESORPTIVE CYTOKINE INHIBITOR CONTAINING DIENOGEST AS THE ACTIVE INGREDIENT” (MOCHIDA PHARMACEUTICAL CO., LTD., priority 1997, dated 1999)
Marks after values point to notes of the source that are not given here.

Key:
Type in all cases: cell-based, mouse
[1] = tested on: IL-6; assay: IL-6 release from murine osteoblast (culture supernatant cytokine assay); conditions: 24 hours culture
Description: Under anesthesia with pentobarbital sodium (25 mg/kg, intraperitoneal administration), postcava was cut to bleed and kill the animal to death. Then, bilateral femoral bones were resected. This bone was cut with a pair of bone scissors, to remove the bone marrow with a micro-loop. The inner face of the bone was rubbed off with a sharp blade. The resulting matter was agitated in a 10 % collagenase solution (Nitta gelatin) at 37 °C for 20 minutes, and to the resulting mixture was added a culture medium (an MEM culture medium supplemented with 10 % charcoal-treated bovine fetal serum; manufactured by Nissui Pharmaceutical, Co. Ltd.) prior to centrifugation (300×g, 5 minutes and 20 °C). The resulting cells were dispersed in a fresh culture medium and then inoculated on a plastic culture dish (diameter of 35 mm, Primaria (Falcon)). […] Osteoblast was identified by using alkali phosphatase staining as an osteoblast marker. For recovering osteoblast from an animal after ovariectomy, ovariectomy was carried out at age 11 weeks, and the animal was fed for the following 4 weeks, prior to the same treatment.
Dienogest as a test substance was dissolved and diluted in dimethylsulfoxide (DMSO, manufactured by Wako Pure Chemical Industries, Ltd.) for use. As a control substance, furthermore, MPA and danazol were used after they were dissolved and diluted in DMSO. DMSO was used as a solvent control.
The final concentrations of the drug were 10^-11, 10^-10 and 10^-9 M. For experiments, furthermore, three dishes per each group were used.
Using SMRART ™ (Pharmacia Biotech, Uppsala, Sweden), the supernatant was concentrated by about 10 fold, after the termination of culturing. The level of cytokine in the sample was assayed by using assay kits of murine IL-1β, IL-6 and TNF-α (Cytoscreen™, BioSource International, Camarillo, Calif. CA, USA) and europium-labeled streptoavidin (Pharmacia Biotech).

[2] = tested on: murine osteoclast; assay: Pit formation by murine osteoclast on ivory disks; conditions: 3 days culture on ivory disk, control 0.16
Description: After an ICR mouse of age 13 days was bled to death under anesthesia (pentobarbital sodium), bilateral femoral bones were resected. In an α-MEM culture medium (Gibco), the femoral bones were cut into pieces with a pair of bone scissors for 5 minutes, and the resulting pieces were agitated with a vortex mixer for 30 seconds. The cell suspension was centrifuged (1000 g, 2 min., 15 °C), and the resulting supernatant was discarded. The precipitate was suspended in an α-MEM culture medium, to adjust the suspension to a cell number of 1×10^7 cells/ml.
A purchased ivory piece was processed into a disk of a diameter of 5.5 mm and a thickness of 200 µm, by using a precision low-speed cutter (manufactured by BUEHLER) and a cut blade. The disk was then treated under ultrasonication in distilled water, and was immersed in an α-MEM culture medium (culture medium) supplemented with 10 % bovine fetal serum (Dai-Nippon Pharmaceuticals, Co.) treated with charcoal. The resulting each disk was placed in each well of a 96-well culture plate (Falcon), to which was added 100 µl of the drug solution. The osteoclast suspension was inoculated at 1×10^6 cells(100µl) thereon, for culturing at 37 °C in 5 % CO2/95 % air for 3 days. All the drugs were adjusted to final concentrations of 10^-11, 10^-10 and 10^-9 M. Additionally, five samples per each concentration were experimented.
Absorbency was determined by calculating a phargocytized area on the bone. More specifically, the ivory piece after the treatment with the drugs was wiped with gauze, rinsed with an ultrasonication machine for 30 minutes, and stained with an acid hematoxylin solution (Sigma Chemical Co., Ltd.) for 5 minutes. The piece was then rinsed in distilled water, and the phargocytized absorption area was measured with an image analyzer (Luzex, Nireco) at 100 magnification. Nine different parts were counted per each ivory piece, to calculate the average.

[3] = tested on: cAMP; assay: cAMP content in murine osteoblast (time-resolved fluorometry); conditions: Fig.1
Description: According to the method by Johansen, et al. (Journal Bone and Mineral Research, Vol.7, pp.501-509, 1992), osteoblast was collected from the femoral bones of a female SLC : ICR mouse of age 15 weeks. Under anesthesia with pentobarbital sodium (25 mg/kg, intraperitoneal administration), postcava was cut to bleed and kill the animal to death. Then, bilateral femoral bones were resected. This bone was cut with a pair of bone scissors, to remove the bone marrow with a micro-loop. The inner face of the bone was rubbed off with a sharp blade. The resulting matter was agitated in a 10 % collagenase solution (Nitta gelatin) at 37 °C for 20 minutes, and to the resulting mixture was added a culture medium (an MEM culture medium supplemented with 10 % charcoal-treated bovine fetal serum; manufactured by Nissui Pharmaceutical, Co. Ltd.) prior to centrifugation (300×g, 5 minutes and 20 °C). The resulting cells were dispersed in a fresh culture medium and then inoculated on a plastic culture dish (diameter of 35 mm, Primaria (Falcon)). […] Osteoblast was identified by using alkali phosphatase staining as an osteoblast marker. For recovering osteoblast from an animal after ovariectomy, ovariectomy was carried out at age 11 weeks, and the animal was fed for the following 4 weeks, prior to the same treatment. 1×10^4 cells/ml osteoblast suspension (100 µl), a culture medium (890 µl) and a drug solution (10 µl) were added into each well of a plastic 24-well culture plate (Falcon), for culturing at 37 °C in 5 % CO2/95 % air for 24 hours, and then, the resulting culture was centrifuged (300 ×g, 5 minutes, 20°C) to recover the supernatant, which was defined as a cytokine assay sample. […] For experiments, furthermore, three dishes per each group were used. […] After rinsing with a DELFIA rinse solution, an enhancer reagent (100 µl) was added, for agitation at room temperature for 5 minutes, to determine the fluorescence intensity with a time-resolved fluorometer. Based on a preliminarily prepared standard curve, cAMP content was calculated.

[4] = osteoblast of non-treated mouse, 10^-9 M, control 39.9
[5] = osteoblast of non-treated mouse, 10^-10 M, control 39.9
[6] = osteoblast of non-treated mouse, 10^-11 M, control 39.9
[7] = osteoblast of ovariectomized mouse, 10^-9 M, control 109.0
[8] = osteoblast of ovariectomized mouse, 10^-10 M, control 109.0
[9] = osteoblast of ovariectomized mouse, 10^-11 M, control 109.0
[10] = doses of 10^-11, 10^-10 and 10^-9 M

SMILES | IL-6 [1, 4] | IL-6 [1, 5] [pg/mL] | IL-6 [1, 6] [pg/mL] | IL-6 [1, 7] | IL-6 [1, 8] | IL-6 [1, 9] [pg/mL] | pit formation due to murine osteoclast (phargocytized absorption area) ([2]; 10^-9 M) | pit formation due to murine osteoclast (phargocytized absorption area) ([2]; 10^-10 M) | pit formation due to murine osteoclast (phargocytized absorption area) ([2]; 10^-11 M) | cAMP content in murine osteoblast [3, 10] | cAMP content in murine osteoblast ([3]; at a concentration of 10^-9 M or more)
C#C[C@]1(O)CC[C@H]2[C@@H]3CCC4=Cc5oncc5C[C@]4(C)[C@H]3CC[C@@]21C [Danazol, danazol] | 42.0** pg/ml | 37.7 | 38.9 | 124.0** pg/ml | 109.4 pg/mL | 111.3 | 0.16 | 0.15 | 0.16 | did not affect | –
C[C@]12CCC3=C4CCC(=O)C=C4CC[C@H]3[C@@H]1CC[C@@]2(O)CC#N [Dienogest, 17 α-cyanomethyl-17β-hydroxy-estra-4,9(10)-dien-3-one] | 32.3** pg/ml | 35.5 | 39.3 | 40.1** pg/ml | 47.7** pg/ml | 94.2 | 0.10** | 0.15 | 0.15 | – | significantly increased
CC(=O)O[C@]1(C(C)=O)CC[C@H]2[C@@H]3C[C@H](C)C4=CC(=O)CC[C@]4(C)[C@H]3CC[C@@]21C [MPA, medroxyprogesterone acetate] | 45.1** pg/ml | 37.6 | 38.7 | 122.5** pg/ml | 109.3 pg/mL | 111.4 | 0.16 | 0.16 | 0.16 | did not affect | –
